Where two headings read alike, the source gives them in different places.
How the values were obtained:
[1] = Compartmental PK modeling of average concentration during cycle 1, patients with hematological tumors; format: in vivo, human; details: all patients with measured PK, four regimens
Protocol: (§1) Pharmacokinetic data have been evaluated throughout the course of the clinical study. […] Furthermore, an integrated analysis of all available HDM201 concentrations was conducted using a population approach. The PK of HDM201 was best described by a 1-compartment PK model with a delayed zero- and first-order absorption process, and a linear clearance. Body weight was identified as a statistically significant covariate on apparent central volume of distribution (Vc/F), in which Vc/F increased with increasing body weight.
Compartmental PK modeling was used to estimate the individual average concentration during cycle 1 for patients with hematological tumors treated following the four different (FIG. 7). For all patients with measured PK, the estimated average drug concentrations during cycle 1 were above the most conservative average tumor stasis concentration of about 41 ng/mL per cycle determined from PKPD modeling of preclinical data (human SJSA-1 xenograft rat model).

[2] = tested on: human SJSA-1 (osteosarcoma) xenograft; experiment: PK/PD tumor growth modelling, human SJSA-1 xenograft rat model; format: in vivo; details: predicted preclinical target
Protocol: Calculation of average dose level (mg/day):
To further support the preferred dose for HDM201, compartmental PK modeling was used to estimate the individual average concentration per cycle for the 9 patients treated at 120 mg on regimen 1B (FIG. 2). For the majority of patients (7 out of 9), the estimated average drug concentrations per cycle were near or above the most conservative average tumor stasis concentration of ≈41 ng/mL per cycle determined from PKPD modeling of preclinical data (human SJSA-1 xenograft rat model).

[3] = Clinical PK of HDM201 in patients (non-compartmental and population PK), study HDM201X2101; format: in vivo, human; details: for Tmax: read-out: Tmax, median; for Cmax: read-out: Cmax, Geo Mean (% CV)
Protocol: as §1, with “dose escalation. Two HDM201 drug variants have been evaluated during the course of the study (refer to the protocol for further details).” for “clinical study.”
Inter-patient variability (CV % Geo-mean) in exposure was generally low to moderate. Compartmental population PK modeling of NVP-HDM201 was used to estimate the individual average plasma concentration for Cycle 1 and to allow comparison with preclinical average concentration for tumor stasis derived by PK/PD tumor growth modeling.
The PK of HDM201 have been evaluated in the ongoing single agent Phase I clinical trial in patients with solid tumors and hematological malignancies (HDM201X2101). Patients have been treated with a single dose on Day 1 in a three-week cycle (q3w, regimen 1A), with a single dose on Day 1 and Day 8 in a four-week cycle (d1 and d8 of 4 w cycle, regimen 1B), or with daily dosing for the first 7 or 14 days in a four-week cycle (regimen 2C [q.d., 1 w on/3 w off] or regimen 2A [q.d., 2 w on/2 w off], respectively). PK assessments were conducted following single dose and repeated administration. Preliminary PK parameters from non-compartmental analysis of plasma concentration-time profiles are summarized by dose regimen and tumor type (data cut-off 1 Apr. 2016). PK parameters for Regimen 2A (Day 1 and 14 of Cycle 1 for doses from 1 to 20 mg) and Regimen 1A (Day 1 of Cycle 1 for doses from 12.5 to 350 mg) in solid tumor patients are summarized as representative of the PK for daily and less frequent dosing regimens (Tables 9, 10 and 11).
Following oral dosing (HDM201 capsule, fasted), the median time to reach maximum plasma concentrations ranged from 2.0 to 5.8 h across the dose range (2 to 350 mg). With the daily dosing regimen, HDM201 steady-state was generally reached by Day 8, and accumulation was less than 2-fold. […]
Furthermore, the individual PK data was best described by a 1-compartment PK model with a delayed zero- and first-order absorption process (data cut-off 1 Apr. 2016). […] Body weight was identified as a statistically significant covariate on Vc/F.

[4] = Regimen 1A 12.5 mg, Day 1 single dose, solid malignancies, N = 1
[5] = Regimen 1A 25 mg, Day 1 single dose, solid malignancies, N = 1
[6] = Regimen 1A 50 mg, Day 1 single dose, solid malignancies, N = 4
[7] = Regimen 1A 100 mg, Day 1 single dose, solid malignancies, N = 4
[8] = Regimen 1A 200 mg, Day 1 single dose, solid malignancies, N = 5
[9] = Regimen 2A 1 mg daily, Day 14, solid malignancies, N = 1
[10] = Regimen 2A 2 mg daily, Day 14, solid malignancies, N = 2
[11] = Regimen 2A 4 mg daily, Day 14, solid malignancies, N = 3
[12] = Regimen 2A 15 mg daily, Day 14, solid malignancies, N = 4
[13] = Regimen 2A 15 mg, Day 1 single dose, solid malignancies, N = 4
[14] = human, plasma, oral, 1 mg, Regimen 2A 1 mg, Day 1 single dose, solid malignancies, N = 1
[15] = human, plasma, oral, 2 mg, Regimen 2A 2 mg, Day 1 single dose, solid malignancies, N = 2

COc1ncc(-c2nc3c(n2C(C)C)[C@H](c2ccc(Cl)cc2)N(c2cc(Cl)cn(C)c2=O)C3=O)c(OC)n1 [HDM201, (S)-5-(5-Chloro-1-methyl-2-oxo-1,2-dihydro-pyridin-3-yl)-6-(4-chloro-phenyl)-2-(2,4-dimethoxy-pyrimidin-5-yl)-1-isopropyl-5,6-dihydro-1H-pyrrolo[3,4-d]imidazol-4-one]
estimated average concentration during cycle 1 relative to tumor stasis concentration (about 41 ng/mL) [1]: above
average concentration (target efficacious level) for 95% tumor regression [2]: 120 ng/mL
AUClast (0-24 h), Geo Mean (% CV) [3, 4]: 1483.1 ng·h/mL
Cmax, Geo Mean (% CV) [3, 4]: 118.0 ng/mL
T½, Geo Mean (% CV) [3, 4]: 7.2 h
AUClast (0-24 h), Geo Mean (% CV) [3, 5]: 1773.6 ng·h/mL
T½, Geo Mean (% CV) [3, 5]: 31.1 h
AUClast (0-24 h), Geo Mean (% CV) [3, 6]: 8028.8 (25.6) ng * hr/mL
Cmax, Geo Mean (% CV) [3, 6]: 467.0 (13.0) ng/mL
AUClast (0-24 h), Geo Mean (% CV) [3, 7]: 14287.0 (58.5) ng * hr/mL
Cmax, Geo Mean (% CV) [3, 7]: 663.3 (30.1) ng/mL
AUClast (0-24 h), Geo Mean (% CV) [3, 8]: 26255.2 (56.2) ng * hr/mL
Cmax, Geo Mean (% CV) [3, 8]: 1168.8 (43.7) ng/mL
AUClast (0-24 h), Geo Mean (% CV) [3, 9]: 99.5 ng·h/mL
Cmax, Geo Mean (% CV) [3, 9]: 14.9 ng/mL
AUClast (0-24 h), Geo Mean (% CV) ([3]; Regimen 2A 1 mg, Day 1 single dose, solid malignancies, N = 1): 134.3 ng·h/mL
AUClast (0-24 h), Geo Mean (% CV) [3, 10]: 109.3 (6.0) ng * hr/mL
Cmax, Geo Mean (% CV) [3, 10]: 17.5 (4.9) ng/mL
AUClast (0-24 h), Geo Mean (% CV) ([3]; Regimen 2A 2 mg, Day 1 single dose, solid malignancies, N = 2): 169.1 (31.5) ng * hr/mL
AUClast (0-24 h), Geo Mean (% CV) [3, 11]: 155.0 (21.7) ng * hr/mL
Cmax, Geo Mean (% CV) [3, 11]: 25.6 (23.9) ng/mL
Cmax, Geo Mean (% CV) ([3]; Regimen 2A 4 mg, Day 1 single dose, solid malignancies, N = 4): 17.6 (22.8) ng/mL
AUClast (0-24 h), Geo Mean (% CV) ([3]; Regimen 2A 7.5 mg, Day 1 single dose, solid malignancies, N = 4): 598.1 (49.8) ng * hr/mL
AUClast (0-24 h), Geo Mean (% CV) [3, 12]: 688.8 (29.2) ng * hr/mL
Cmax, Geo Mean (% CV) [3, 12]: 106.0 (27.9) ng/mL
AUClast (0-24 h), Geo Mean (% CV) [3, 13]: 1301.6 (71.0) ng * hr/mL
Cmax, Geo Mean (% CV) [3, 13]: 91.5 (56.9) ng/mL
accumulation upon daily dosing ([3]; daily dosing): limited accumulation
accumulation ([3]; daily dosing regimen): less than 2 fold
steady-state reached by ([3]; daily dosing regimen): ≤ 8 days
Tmax ([3]; human, plasma, oral, 1 mg, Regimen 2A 1 mg daily, Day 14, solid malignancies, N = 1): 4 h
Cmax [3, 14]: 7.9 ng/mL
Tmax [3, 14]: 8 h
Tmax ([3]; human, plasma, oral, 2 mg, Regimen 2A 2 mg daily, Day 14, solid malignancies, N = 2): 3.9 h
Cmax [3, 15]: 12 ng/mL
Tmax [3, 15]: 3.4 h
Tmax ([3]; human, plasma, oral, 4 mg, Regimen 2A 4 mg daily, Day 14, solid malignancies, N = 3): 4 h
AUC(0-t) ([3]; human, plasma, oral, 4 mg, Regimen 2A 4 mg, Day 1 single dose, solid malignancies, N = 4, read-out: AUClast (0-24 h), Geo Mean (% CV)): 193 ng·h/mL
Tmax ([3]; human, plasma, oral, 4 mg, Regimen 2A 4 mg, Day 1 single dose, solid malignancies, N = 4): 2.5 h
